Results from ChEMBL document CHEMBL1201862, “PubChem BioAssay data set” (2004).
Activity calls are given as the source filed them.

Experiments:
[1] = target: Heat shock cognate 71 kDa protein (Homo sapiens, UniProt P11142); assay: In Vitro Hsc70 Dose Response Fluorescence Polarization Assay. [Related pubchem assays: 1072 ]
[2] = target: T1, Lysine-specific demethylase 4C (Homo sapiens, UniProt Q9H3R0); assay: GASC-1 (JMJD2C) histone demethylase inhibitors, dose response, biochemical, DELFIA europium, cherry-picked samples (AID 488835); type: functional
T1 sequence (Q9H3R0 whole entry): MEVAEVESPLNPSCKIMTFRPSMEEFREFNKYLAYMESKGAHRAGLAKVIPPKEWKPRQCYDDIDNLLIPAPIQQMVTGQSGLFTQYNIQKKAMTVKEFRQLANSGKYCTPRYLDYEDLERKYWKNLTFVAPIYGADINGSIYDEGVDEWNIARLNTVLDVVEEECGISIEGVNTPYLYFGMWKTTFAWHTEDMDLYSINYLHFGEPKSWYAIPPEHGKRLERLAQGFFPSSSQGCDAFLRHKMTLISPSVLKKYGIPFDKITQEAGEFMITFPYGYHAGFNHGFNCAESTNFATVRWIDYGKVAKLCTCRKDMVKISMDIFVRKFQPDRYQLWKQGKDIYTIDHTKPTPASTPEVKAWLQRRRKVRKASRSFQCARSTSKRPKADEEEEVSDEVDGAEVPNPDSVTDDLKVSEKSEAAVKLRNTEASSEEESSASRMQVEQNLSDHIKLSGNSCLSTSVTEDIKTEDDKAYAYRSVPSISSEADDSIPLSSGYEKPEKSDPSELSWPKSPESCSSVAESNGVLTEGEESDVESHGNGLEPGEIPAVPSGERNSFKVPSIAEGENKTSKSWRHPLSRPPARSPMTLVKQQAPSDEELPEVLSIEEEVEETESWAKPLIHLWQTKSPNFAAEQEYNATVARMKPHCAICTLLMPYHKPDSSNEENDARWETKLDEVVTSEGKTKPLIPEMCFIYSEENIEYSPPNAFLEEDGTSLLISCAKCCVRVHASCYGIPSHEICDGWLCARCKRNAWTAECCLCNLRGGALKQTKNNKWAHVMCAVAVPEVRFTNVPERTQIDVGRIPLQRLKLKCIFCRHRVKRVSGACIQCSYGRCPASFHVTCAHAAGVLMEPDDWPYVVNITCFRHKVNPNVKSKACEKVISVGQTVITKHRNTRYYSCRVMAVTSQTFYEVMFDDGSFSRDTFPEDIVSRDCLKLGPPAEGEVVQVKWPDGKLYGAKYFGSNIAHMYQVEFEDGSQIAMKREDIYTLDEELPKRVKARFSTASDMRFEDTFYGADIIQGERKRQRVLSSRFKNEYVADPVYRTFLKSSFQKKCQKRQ

ORF 73 = ORF 73 (Human herpesvirus 8, UniProt O40947); assay: inhibitors of C-LANA binding to LBS DNA, dose response, biochemical, fluorescence polarization, cherry-picked samples (AID 504725); parameters: species or system Human gammaherpesvirus 8;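 also: fluorescence polarization of a labeled DNA duplex reporting LANA DNA binding; potency is for inhibitors that block LANA binding to the DNA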
ORF 73, sequence (O40947 whole entry): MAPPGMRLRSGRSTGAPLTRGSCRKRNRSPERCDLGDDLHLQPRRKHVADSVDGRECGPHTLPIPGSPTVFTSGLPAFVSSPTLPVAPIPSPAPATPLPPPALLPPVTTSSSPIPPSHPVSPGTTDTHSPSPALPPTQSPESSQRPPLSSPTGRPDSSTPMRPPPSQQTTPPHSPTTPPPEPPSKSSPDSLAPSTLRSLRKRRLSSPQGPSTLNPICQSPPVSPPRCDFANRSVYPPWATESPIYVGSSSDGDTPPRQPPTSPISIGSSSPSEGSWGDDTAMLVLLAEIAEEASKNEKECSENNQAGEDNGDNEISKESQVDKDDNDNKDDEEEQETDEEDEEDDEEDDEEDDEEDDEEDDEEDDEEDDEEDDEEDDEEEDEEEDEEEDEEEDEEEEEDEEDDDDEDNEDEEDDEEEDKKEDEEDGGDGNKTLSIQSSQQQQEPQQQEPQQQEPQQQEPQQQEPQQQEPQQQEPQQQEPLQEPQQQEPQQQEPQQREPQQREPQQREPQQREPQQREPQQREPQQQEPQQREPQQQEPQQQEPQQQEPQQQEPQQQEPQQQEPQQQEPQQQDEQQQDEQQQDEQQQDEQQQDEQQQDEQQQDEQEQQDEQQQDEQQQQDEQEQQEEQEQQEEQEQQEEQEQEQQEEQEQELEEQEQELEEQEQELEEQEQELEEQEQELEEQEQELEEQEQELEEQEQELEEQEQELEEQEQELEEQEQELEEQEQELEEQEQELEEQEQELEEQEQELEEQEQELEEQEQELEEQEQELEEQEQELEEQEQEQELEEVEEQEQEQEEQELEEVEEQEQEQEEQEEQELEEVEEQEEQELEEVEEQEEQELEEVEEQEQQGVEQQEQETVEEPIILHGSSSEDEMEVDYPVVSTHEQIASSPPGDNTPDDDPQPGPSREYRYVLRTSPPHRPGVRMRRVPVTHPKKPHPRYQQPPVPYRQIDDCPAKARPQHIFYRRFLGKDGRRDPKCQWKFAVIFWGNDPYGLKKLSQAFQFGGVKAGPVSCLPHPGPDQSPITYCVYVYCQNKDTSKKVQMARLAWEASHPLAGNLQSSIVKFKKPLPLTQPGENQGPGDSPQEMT

[3] = target: 26S proteasome non-ATPase regulatory subunit 14 (Homo sapiens, UniProt O00487); assay: inhibition of proteasome subunit RPN11 – biochemical, fluorescence polarization, uHTS hits, confirmation (AID 602368); type: functional
26S proteasome non-ATPase regulatory subunit 14, sequence (O00487 whole entry): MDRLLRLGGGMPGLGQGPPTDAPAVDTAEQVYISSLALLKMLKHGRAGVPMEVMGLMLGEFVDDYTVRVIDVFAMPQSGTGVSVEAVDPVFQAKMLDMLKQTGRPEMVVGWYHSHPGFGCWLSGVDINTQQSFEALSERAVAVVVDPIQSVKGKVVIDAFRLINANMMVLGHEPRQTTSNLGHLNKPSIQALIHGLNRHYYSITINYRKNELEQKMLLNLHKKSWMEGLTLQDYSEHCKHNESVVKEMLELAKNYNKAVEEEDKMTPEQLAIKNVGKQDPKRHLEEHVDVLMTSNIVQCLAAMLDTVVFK

[4] = target: Eukaryotic translation initiation factor 4E (Mus musculus, UniProt P63073); assay: eIF4E–eIF4G protein interaction inhibitors, dose response, biochemical, TR-FRET (AID 855); type: functional;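 also: potency for disrupting eIF4E binding to eIF4GI seen as loss of FRET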
Eukaryotic translation initiation factor 4E, sequence (P63073 whole entry): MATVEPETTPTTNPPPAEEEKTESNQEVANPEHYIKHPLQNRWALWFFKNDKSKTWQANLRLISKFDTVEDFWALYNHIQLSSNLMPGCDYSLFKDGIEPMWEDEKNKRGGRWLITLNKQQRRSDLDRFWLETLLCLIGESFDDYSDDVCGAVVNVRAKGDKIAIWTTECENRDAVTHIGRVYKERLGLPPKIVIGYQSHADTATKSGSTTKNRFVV

[5] = target: T2, Tyrosine-protein phosphatase non-receptor type 7 (Homo sapiens, UniProt P35236); type: functional
T2 sequence (P35236 whole entry): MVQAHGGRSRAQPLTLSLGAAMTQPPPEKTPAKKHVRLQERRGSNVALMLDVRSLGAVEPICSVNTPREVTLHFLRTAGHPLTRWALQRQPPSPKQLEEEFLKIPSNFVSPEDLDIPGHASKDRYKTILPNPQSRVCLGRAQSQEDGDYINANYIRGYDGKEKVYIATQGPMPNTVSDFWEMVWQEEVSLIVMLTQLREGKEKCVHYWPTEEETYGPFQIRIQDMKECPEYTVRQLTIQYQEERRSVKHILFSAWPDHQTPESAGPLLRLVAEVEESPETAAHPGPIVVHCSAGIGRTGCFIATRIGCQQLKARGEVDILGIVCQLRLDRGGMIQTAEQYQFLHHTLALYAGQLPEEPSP

HeLa = assay: HeLa cell cytotoxicity, dose response, cytotoxicity control, 24 h, cherry-picked samples (AID 504726); type: functional, cell-based; details: Homo sapiens;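 also: potency for cytotoxicity as loss of luminescence signal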
[6] = target: T3, Dual specificity protein phosphatase 6 (Rattus norvegicus, UniProt Q64346)
T3 sequence (Q64346 whole entry): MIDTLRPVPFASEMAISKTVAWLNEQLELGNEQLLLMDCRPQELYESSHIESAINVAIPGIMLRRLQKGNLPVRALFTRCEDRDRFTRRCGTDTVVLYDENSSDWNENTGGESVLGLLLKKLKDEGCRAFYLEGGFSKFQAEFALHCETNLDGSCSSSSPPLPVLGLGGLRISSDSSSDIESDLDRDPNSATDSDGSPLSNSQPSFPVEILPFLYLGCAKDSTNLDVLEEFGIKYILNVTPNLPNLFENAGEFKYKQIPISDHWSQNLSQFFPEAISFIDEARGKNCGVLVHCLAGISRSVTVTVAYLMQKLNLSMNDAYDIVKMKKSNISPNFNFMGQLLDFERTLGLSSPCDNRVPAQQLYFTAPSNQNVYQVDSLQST

[7] = target: Heat shock 70 kDa protein 1A (Homo sapiens, UniProt P0DMV8); assay: Hsp70 inhibitors, SAR follow-up, biochemical, fluorescence polarization (AID 1072)
[8] = target: Glyceraldehyde-3-phosphate dehydrogenase (Homo sapiens, UniProt P04406)
Glyceraldehyde-3-phosphate dehydrogenase, sequence (P04406 whole entry): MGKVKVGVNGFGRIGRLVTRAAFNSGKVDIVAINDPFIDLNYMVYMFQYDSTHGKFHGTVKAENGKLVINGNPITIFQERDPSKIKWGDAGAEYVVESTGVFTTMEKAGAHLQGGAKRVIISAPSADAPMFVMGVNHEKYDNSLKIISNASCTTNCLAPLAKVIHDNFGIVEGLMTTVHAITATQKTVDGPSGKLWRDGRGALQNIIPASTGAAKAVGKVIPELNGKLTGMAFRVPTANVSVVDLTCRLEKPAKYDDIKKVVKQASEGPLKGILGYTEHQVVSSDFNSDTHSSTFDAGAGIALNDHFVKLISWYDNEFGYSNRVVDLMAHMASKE

[9] = target: T3, Dual specificity protein phosphatase 6; assay: MKP-3 phosphatase inhibitors, primary screen, biochemical, rat enzyme, in vitro (AID 425)
[10] = target: 72 kDa type IV collagenase (Homo sapiens, UniProt P08253); assay: Dose Response validation of uHTS RPN11 inhibitor hits using a MMP-2 Fluorescence assay.; type: functional
[11] = target: DNA (cytosine-5)-methyltransferase 1 (Homo sapiens, UniProt P26358); assay: DNMT1 methyltransferase inhibitors, confirmation, biochemical, fluorescent molecular beacon (AID 602386); type: functional
Large T antigen = Large T antigen (Simian virus 40, UniProt P03070); type: functional, Betapolyomavirus macacae;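 also: Confirmatory-stage PubChem screen for compounds that inhibit SV40 T antigen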
Prothrombin = Prothrombin (Bos taurus, UniProt P00735); assay: thrombin inhibition, dose response, biochemical, fluorescence polarization, uHTS hits (AID 602369); type: functional
[12] = target: T3, Dual specificity protein phosphatase 6; type: functional
HEK293 = assay: inhibitors of LMP1-driven NF-kB reporter, dose response, cell-based, HEK293, luciferase, cherry-pick (AID 588343); type: functional; details: Homo sapiens
Interleukin-8 [13] = target: T4, Interleukin-8 (Homo sapiens, UniProt P10145); assay: Dose Response confirmation of uHTS small molecule hits for cystic fibrosis induced NFkb Inhibitors in a TNFa-induced IL8 counterscreen.; type: functional; details: read-out: IC50_Mean
T4 sequence (P10145 whole entry): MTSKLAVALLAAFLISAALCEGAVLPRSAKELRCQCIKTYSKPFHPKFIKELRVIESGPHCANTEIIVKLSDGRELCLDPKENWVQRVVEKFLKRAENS

Interleukin-8 [14] = target: T4, Interleukin-8; assay: Dose Response confirmation of uHTS small molecule hits for cystic fibrosis induced NFkb Inhibitors in a PAF-induced IL8 counterscreen.; type: functional; details: read-out: IC50_Mean
Steroidogenic factor 1 = Steroidogenic factor 1 (Homo sapiens, UniProt Q13285); assay: Counterscreen for inverse agonists of the liver receptor homolog-1 (LRH-1; NR5A2): Luminescence-based cell-based high throughput dose response assay to identify inverse agonists of the Steroidogenic Factor 1 Nuclear Receptor (SF1; NR5A1).; type: functional
Steroidogenic factor 1, sequence (Q13285 whole entry): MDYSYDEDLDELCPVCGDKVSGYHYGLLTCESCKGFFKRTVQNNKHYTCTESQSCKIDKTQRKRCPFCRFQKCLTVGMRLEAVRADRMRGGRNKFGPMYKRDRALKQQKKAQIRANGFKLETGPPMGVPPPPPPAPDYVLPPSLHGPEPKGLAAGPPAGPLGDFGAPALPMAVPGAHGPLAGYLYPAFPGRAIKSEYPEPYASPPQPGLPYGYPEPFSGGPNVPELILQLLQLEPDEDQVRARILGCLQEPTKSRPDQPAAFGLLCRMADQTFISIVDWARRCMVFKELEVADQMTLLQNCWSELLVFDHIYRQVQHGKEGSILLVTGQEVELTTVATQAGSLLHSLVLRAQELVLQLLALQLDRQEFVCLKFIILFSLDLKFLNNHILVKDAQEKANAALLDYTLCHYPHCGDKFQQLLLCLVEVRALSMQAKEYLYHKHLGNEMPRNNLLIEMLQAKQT

[15] = StAR promoter reporter inhibition counter-screen, dose response, counter-screen for LRH-1 inverse agonist project, cell-based, luminescence, luciferase reporter (AID 651969); type: functional
[16] = target: Nuclear receptor subfamily 5 group A member 2 (Homo sapiens, UniProt O00482); type: functional, cell-based;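 also: HEK293T cells transfected with LRH-1 and a StAR promoter luciferase reporter; potency for inhibitors that lower LRH-1 driven reporter light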
[17] = target: Tyrosine-protein phosphatase non-receptor type 11 (Homo sapiens, UniProt Q06124); assay: SHP2 phosphatase inhibition, dose response, selectivity assay for STEP inhibitor project, biochemical (AID 602367); type: functional; details: read-out: IC50_Mean
Tyrosine-protein phosphatase non-receptor type 11, sequence (Q06124 whole entry): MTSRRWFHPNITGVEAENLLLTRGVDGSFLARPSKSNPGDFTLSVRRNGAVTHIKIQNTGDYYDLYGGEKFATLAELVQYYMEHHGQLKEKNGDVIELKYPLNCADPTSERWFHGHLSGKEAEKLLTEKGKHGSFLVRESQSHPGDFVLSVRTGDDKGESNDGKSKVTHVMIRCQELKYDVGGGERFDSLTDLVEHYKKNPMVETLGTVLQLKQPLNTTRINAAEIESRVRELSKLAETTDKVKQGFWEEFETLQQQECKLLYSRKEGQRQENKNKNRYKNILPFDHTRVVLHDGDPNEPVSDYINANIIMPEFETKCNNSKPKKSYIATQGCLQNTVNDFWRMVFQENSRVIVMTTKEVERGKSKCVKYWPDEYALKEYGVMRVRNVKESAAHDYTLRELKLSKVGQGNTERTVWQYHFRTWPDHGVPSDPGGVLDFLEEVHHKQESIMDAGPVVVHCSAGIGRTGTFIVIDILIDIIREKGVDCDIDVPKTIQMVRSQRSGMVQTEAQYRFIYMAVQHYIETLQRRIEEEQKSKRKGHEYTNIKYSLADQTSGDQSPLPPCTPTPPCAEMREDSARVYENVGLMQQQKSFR

[18] = target: Dual specificity protein phosphatase 3 (Homo sapiens, UniProt P51452); assay: VHR phosphatase inhibition, dose response, selectivity assay for STEP inhibitor project, biochemical (AID 602374); type: functional; details: read-out: IC50_Mean
Dual specificity protein phosphatase 3, sequence (P51452 whole entry): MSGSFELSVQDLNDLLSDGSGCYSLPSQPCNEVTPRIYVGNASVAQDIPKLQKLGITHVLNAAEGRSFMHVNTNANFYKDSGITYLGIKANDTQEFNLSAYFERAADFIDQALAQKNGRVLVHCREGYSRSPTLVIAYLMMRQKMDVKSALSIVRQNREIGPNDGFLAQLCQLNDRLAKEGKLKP

[19] = target: Tyrosine-protein phosphatase non-receptor type 5 (Homo sapiens, UniProt P54829); assay: STEP phosphatase inhibitors, confirmation, biochemical, fluorescence intensity, uHTS hits (AID 602372); type: functional; details: read-out: IC50_Mean
Tyrosine-protein phosphatase non-receptor type 5, sequence (P54829 whole entry): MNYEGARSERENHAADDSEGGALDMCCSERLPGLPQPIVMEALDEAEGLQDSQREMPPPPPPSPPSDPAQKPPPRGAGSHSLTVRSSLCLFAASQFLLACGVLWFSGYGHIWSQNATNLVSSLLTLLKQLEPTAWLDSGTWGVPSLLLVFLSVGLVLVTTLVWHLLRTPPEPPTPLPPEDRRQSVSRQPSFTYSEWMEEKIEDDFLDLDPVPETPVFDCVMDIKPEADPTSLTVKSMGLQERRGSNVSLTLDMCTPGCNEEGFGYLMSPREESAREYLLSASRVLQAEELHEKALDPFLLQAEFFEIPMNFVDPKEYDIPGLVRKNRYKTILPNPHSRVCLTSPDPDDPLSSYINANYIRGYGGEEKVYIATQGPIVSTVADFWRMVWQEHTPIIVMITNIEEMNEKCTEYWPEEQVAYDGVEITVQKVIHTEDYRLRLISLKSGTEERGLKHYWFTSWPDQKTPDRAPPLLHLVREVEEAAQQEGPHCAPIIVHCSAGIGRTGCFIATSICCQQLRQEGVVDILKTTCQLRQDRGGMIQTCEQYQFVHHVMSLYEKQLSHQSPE

[20] = target: Glucose-6-phosphate 1-dehydrogenase (Homo sapiens, UniProt P11413); assay: human G6PD enzyme inhibitors, dose response, selectivity assay for P. falciparum G6PD inhibitor project, biochemical, fluorescence (AID 504792); type: functional
Glucose-6-phosphate 1-dehydrogenase, sequence (P11413 whole entry): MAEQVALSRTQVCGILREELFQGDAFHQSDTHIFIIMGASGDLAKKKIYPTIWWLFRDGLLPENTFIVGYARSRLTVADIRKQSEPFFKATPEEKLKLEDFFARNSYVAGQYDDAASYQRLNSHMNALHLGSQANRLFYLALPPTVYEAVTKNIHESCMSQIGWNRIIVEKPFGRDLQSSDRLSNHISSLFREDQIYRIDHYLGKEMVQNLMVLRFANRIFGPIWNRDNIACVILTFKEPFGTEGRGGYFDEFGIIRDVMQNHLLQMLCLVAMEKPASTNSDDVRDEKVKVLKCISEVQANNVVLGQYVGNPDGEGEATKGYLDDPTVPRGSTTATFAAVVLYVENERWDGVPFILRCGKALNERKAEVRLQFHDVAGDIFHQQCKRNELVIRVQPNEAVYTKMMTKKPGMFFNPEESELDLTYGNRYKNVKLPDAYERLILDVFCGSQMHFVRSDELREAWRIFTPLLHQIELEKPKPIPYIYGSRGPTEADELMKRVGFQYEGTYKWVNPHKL

Heat shock cognate 71 kDa protein, sequence (P11142 whole entry): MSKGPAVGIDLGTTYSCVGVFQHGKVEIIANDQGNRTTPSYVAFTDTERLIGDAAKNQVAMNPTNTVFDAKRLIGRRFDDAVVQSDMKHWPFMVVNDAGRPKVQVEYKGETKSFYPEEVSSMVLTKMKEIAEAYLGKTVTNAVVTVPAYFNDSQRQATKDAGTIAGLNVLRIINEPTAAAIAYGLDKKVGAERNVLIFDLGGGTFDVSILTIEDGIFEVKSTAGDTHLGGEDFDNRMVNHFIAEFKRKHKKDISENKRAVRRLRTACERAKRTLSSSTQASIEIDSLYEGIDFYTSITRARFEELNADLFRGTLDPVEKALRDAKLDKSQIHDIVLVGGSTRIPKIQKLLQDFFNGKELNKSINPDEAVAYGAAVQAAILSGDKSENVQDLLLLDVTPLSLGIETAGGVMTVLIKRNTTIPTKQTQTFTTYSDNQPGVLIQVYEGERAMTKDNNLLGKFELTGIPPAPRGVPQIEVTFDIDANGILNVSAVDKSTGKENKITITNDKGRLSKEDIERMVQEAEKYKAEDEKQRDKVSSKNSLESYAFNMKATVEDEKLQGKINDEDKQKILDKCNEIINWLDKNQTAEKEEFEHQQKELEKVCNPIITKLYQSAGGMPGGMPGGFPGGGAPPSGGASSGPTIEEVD

O=C1CC(=O)N(Cc2ccco2)C(=O)N1
IC50 [1]: > 100 µM (not active) | AC50 [2]: 11.2 µM (active) | AC50 (ORF 73): 132 µM (active) | IC50 [3]: 9.99 µM (active) | IC50 [4]: > 64 µM (inactive) | IC50 [5]: 5.11 µM (active) | AC50 (HeLa): > 350 µM (inactive) | IC50 [6]: > 100 µM (inactive) | IC50 [7]: > 100 µM (not active) | IC50 [8]: > 100 µM (not active) | IC50 [9]: > 10 µM (not active) | IC50 [10]: 1.04 µM (active) | IC50 [11]: 1.58 µM (active) | IC50 (Large T antigen): 76.3 µM (active) | IC50 (Prothrombin): 59.1 µM (active) | IC50 [12]: > 100 µM (inactive)

Nc1ncnc(N2CCc3ccccc32)c1[N+](=O)[O-]
AC50 (HEK293): 4.52 µM (active) | IC50 (Interleukin-8 [13]): 40.1 µM (inactive) | IC50 (Interleukin-8 [14]): > 79 µM (inactive)

COc1cc(/C=N/n2nnnc2N)ccc1OCc1c(C)no[n+]1[O-]
IC50 (Steroidogenic factor 1): 6.23 µM (active) | IC50 [15]: 35.9 µM (inactive) | IC50 [16]: 12.4 µM (inactive)

CCN1CCN(C(=S)c2ccc(Cl)c(Cl)c2)CC1
IC50 [17]: 0.843 µM (active) | IC50 [18]: 0.81 µM (active) | IC50 [19]: 18.2 µM (active) | IC50 [20]: > 80 µM (inactive)
